The values below come from US9371351B2, “Glycomimetics as Pseudomonas aeruginosa lectin inhibitors” (priority 2012, dated 2016).

Test [1] addresses T1, LecB (Pseudomonas aeruginosa, UniProt Q9HYN5). Kind of test: biochemical. It counts as binding. The conditions noted are these: for rIC50 (MeMan): IC50 relative to Me-α-Man, below 1 = stronger ligand than Me-α-Man. The method, then:
A LecB competition assay was carried out by a novel fluorescence polarization assay developed by the inventors of the present invention. To date, an enzyme-linked lectin assay (ELLA) is widely used for the evaluation in screening of the binding potential of ligands to LecB. This allows the evaluation of molecules over a broad affinity range, including monovalent ligands and oligomeric dendrimers thereof. ELLAs have been developed based on enzyme-linked immunosorbent assays (ELISA). […] Furthermore, the current ELLA protocol involves either a surface immobilization of LecB or a covalent modification of the lectin, which could interfere with ligand binding. Consequently, hits from the ELLA are usually further characterized by direct measurement of the binding process of the ligand with the native, unmodified protein using microcalorimetry, requiring large amounts of protein.
In this assay format, the displacement of a fluorescently-labeled reporter ligand bound to the receptor by an inhibitor can be measured by mixing protein, inhibitor and reporter ligand in a given buffer system.
Similar conditions were applied, but the protein concentration was fixed at 150 nM. […] The resulting sigmoidal data points on the logarithmic inhibitor concentration scale were used to fit a one-site inhibition model and obtain IC50 values.
After addition of the reagents, the microtiter plates were centrifuged at 800 rpm for 1 min at 23° C. and incubated for 6 h at room temperature. The fluorescence was measured on a Tecan […] F500 plate reader (Tecan Austria GmbH) with excitation filters at 485 nm and emission filters at 535 nm in black 384-well microtiter plates (Greiner Bio-One). The G-factor was set on 0.92154 and the gain to 80. The measured intensities were reduced by buffer values. The data were analyzed with Graphpad Prism 5 and fitted according to the four parameter variable slope model.

Test [2] has as its target T1, LecB. The test can be described thus: biochemical. Type of test: binding.

T1 sequence (Q9HYN5 entry or part of it): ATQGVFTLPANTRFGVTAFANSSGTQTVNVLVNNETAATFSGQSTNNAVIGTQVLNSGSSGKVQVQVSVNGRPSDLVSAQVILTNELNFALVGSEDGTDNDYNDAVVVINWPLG

Turning to `CO[C@H]1O[C@H](CNC(=O)/C=C/c2ccc(N)cc2)[C@@H](O)[C@H](O)[C@@H]1O` [11j, Methyl 6-(4-aminocinnamido)-6-deoxy-α-D-mannopyranoside], in test [1], the concentration for half-maximal inhibition (IC50) (commonly the point on the concentration scale where inhibition reaches its midpoint) is 53.2 µM and the “rIC50 (MeMan)” value is 0.24. Turning to `CO[C@H]1O[C@H](CNS(=O)(=O)c2ccccc2)[C@@H](O)[C@H](O)[C@@H]1O` [10a, Methyl 6-(phenylsulfonylamido)-6-deoxy-α-D-mannopyranoside], the “rIC50 (MeMan)” value in test [1] amounted to 0.09. With `CO[C@H]1O[C@H](CNC(=O)/C=C/c2ccccc2N)[C@@H](O)[C@H](O)[C@@H]1O` [11d, Methyl 6-(2-aminocinnamido)-6-deoxy-α-D-mannopyranoside], in test [1], the half-maximal inhibitory concentration (IC50) was 52.6 µM and the “rIC50 (MeMan)” value is on record as 0.24. As to `CO[C@H]1O[C@H](CNC(=O)c2ccccc2Cl)[C@@H](O)[C@H](O)[C@@H]1O` [11s, Methyl 6-(2-chlorobenzoylamido)-6-deoxy-α-D-mannopyranoside], in test [1], 239 µM corresponded to half-maximal inhibition (IC50) and the “rIC50 (MeMan)” value is 1.09. Taken in the same sequence, the figures for `CO[C@H]1O[C@H](CNC(=O)c2ccc([N+](=O)[O-])cc2)[C@@H](O)[C@H](O)[C@@H]1O` [11r, Methyl 6-(4-nitrobenzoylamido)-6-deoxy-α-D-mannopyranoside] were 206 µM and 0.94. For `CO[C@H]1O[C@H](CNC(=O)/C=C/c2ccc(Cl)cc2Cl)[C@@H](O)[C@H](O)[C@@H]1O` [11m, Methyl 6-(2,4-dichlorocinnamido)-6-deoxy-α-D-mannopyranoside], in test [1], the half-maximal inhibitory concentration (IC50) worked out at 71 µM and the “rIC50 (MeMan)” value was found to be 0.32.

`CO[C@H]1O[C@H](CNC(=O)/C=C/c2ccccc2C)[C@@H](O)[C@H](O)[C@@H]1O` [11e, Methyl 6-(2-methylcinnamido)-6-deoxy-α-D-mannopyranoside]: in test [1], the midpoint of inhibition, the IC50, lay at 62.7 µM and the “rIC50 (MeMan)” value was 0.29. As for `COc1ccccc1/C=C/C(=O)NC[C@H]1O[C@H](OC)[C@@H](O)[C@@H](O)[C@@H]1O` [11b, Methyl 6-(2-methoxycinnamido)-6-deoxy-α-D-mannopyranoside], in test [1], 45.8 µM corresponded to half-maximal inhibition (IC50) and the “rIC50 (MeMan)” value turned out to be 0.21.

As to `CO[C@H]1O[C@H](CNS(=O)(=O)c2c(C)cc(C)cc2C)[C@@H](O)[C@H](O)[C@@H]1O` [10e, Methyl 6-(2,4,6-trimethylphenylsulfonylamido)-6-deoxy-α-D-mannopyranoside], the “rIC50 (MeMan)” value in test [1] came to 0.015. For `COC1O[C@H](CNS(=O)(=O)/C=C/c2ccccc2)C(O)C(O)[C@@H]1O` (stereo partly drawn) [compound 14, Methyl 6-(trans-β-styrenesulfonylamido)-6-deoxy-α-D-mannopyranoside], 79 µM corresponded to half-maximal inhibition in test [1] (IC50).

For `CO[C@H]1O[C@H](CNC(=O)/C=C/c2ccc([N+](=O)[O-])cc2)[C@@H](O)[C@H](O)[C@@H]1O` [11i, Methyl 6-(4-nitrocinnamido)-6-deoxy-α-D-mannopyranoside], in test [1], the IC50 stood at 106 µM and the “rIC50 (MeMan)” value worked out at 0.49. On to `Cc1cc(C)c(S(=O)(=O)NC[C@H]2OC(C)[C@@H](O)C(O)C2O)c(C)c1` (stereo partly drawn) [13b, N-(6S-Methyl-3R,4R,5R-trihydroxy-tetrahydropyranosyl-2R-methyl)-2,4,6-trimethylphenyl sulfonamide], for which, in test [2] (SPR, 1:1 binding model), the kd was 0.00041 s⁻¹. The kon in test [2] (pH 7.4, read-out: ka) came to 1260 M⁻¹ s⁻¹. Take `CO[C@H]1O[C@H](CNC(=O)/C=C/c2ccccc2[N+](=O)[O-])[C@@H](O)[C@H](O)[C@@H]1O` [11c, Methyl 6-(2-nitrocinnamido)-6-deoxy-α-D-mannopyranoside]: in test [1], the IC50 worked out at 75.5 µM and the “rIC50 (MeMan)” value worked out at 0.35.

As for `CO[C@H]1O[C@H](CNC(=O)Cc2ccccc2)[C@@H](O)[C@H](O)[C@@H]1O` [11q, Methyl 6-(phenylacetamido)-6-deoxy-α-D-mannopyranoside], in test [1], half-maximal inhibition (IC50) was put at 205 µM and the “rIC50 (MeMan)” value amounted to 0.93. In the same order, the values of `CO[C@H]1O[C@H](CNS(=O)(=O)c2c(C(C)C)cc(C(C)C)cc2C(C)C)[C@@H](O)[C@H](O)[C@@H]1O` [10f, Methyl 6-(2,4,6-triisopropylphenylsulfonylamido)-6-deoxy-α-D-mannopyranoside] are 11.5 µM and 0.05. `CC1O[C@H](CNS(=O)(=O)/C=C/c2ccccc2)C(O)C(O)[C@@H]1O` (stereo partly drawn) [compound 15, N-(6S-Methyl-3R,4R,5R-trihydroxy-tetrahydropyranosyl-2R-methyl)-trans-β-styrene sulfonamide] gave an IC50 in test [1] of 12.7 µM. This counts as double-digit micromolar. In the case of `CO[C@H]1O[C@H](CNS(=O)(=O)c2ccc(Br)cc2)[C@@H](O)[C@H](O)[C@@H]1O` [10c, Methyl 6-(4-bromophenylsulfonylamido)-6-deoxy-α-D-mannopyranoside], in test [1], half-maximal inhibition (IC50) was put at 24.9 µM and the “rIC50 (MeMan)” value was 0.12. In the same order, the values of `CO[C@H]1O[C@H](CNC(=O)/C=C/c2cccc(N)c2)[C@@H](O)[C@H](O)[C@@H]1O` [11g, Methyl 6-(3-aminocinnamido)-6-deoxy-α-D-mannopyranoside] are 63 µM and 0.29. In the case of `CO[C@H]1O[C@H](CNC(=O)/C=C/c2ccc(C)cc2)[C@@H](O)[C@H](O)[C@@H]1O` [11k, Methyl 6-(4-methylcinnamido)-6-deoxy-α-D-mannopyranoside], the “rIC50 (MeMan)” value in test [1] was found to be 0.16. On to `CO[C@H]1O[C@H](CNC(=O)/C=C/c2ccc3c(c2)OCO3)[C@@H](O)[C@H](O)[C@@H]1O` [11o, Methyl 6-(3,4-methylenedioxycinnamido)-6-deoxy-α-D-mannopyranoside], for which, in test [1], the IC50 is 31.8 µM and the “rIC50 (MeMan)” value is 0.15. As to `CO[C@H]1O[C@H](CNC(=O)/C=C/c2ccc(Cl)cc2)[C@@H](O)[C@H](O)[C@@H]1O` [11l, Methyl 6-(4-chlorocinnamido)-6-deoxy-α-D-mannopyranoside], in test [1], the IC50 came out at 48.4 µM and the “rIC50 (MeMan)” value was found to be 0.22. For the compound `CO[C@H]1O[C@H](CNC(=O)c2ccc3ccccc3c2)[C@@H](O)[C@H](O)[C@@H]1O` [11t, Methyl 6-(2-naphtoylamido)-6-deoxy-α-D-mannopyranoside], in test [1], the half-maximal inhibitory concentration (IC50) was found to be 118 µM and the “rIC50 (MeMan)” value was determined as 0.54.

`CO[C@H]1O[C@H](CNC(=O)/C=C/c2cccc([N+](=O)[O-])c2)[C@@H](O)[C@H](O)[C@@H]1O` [11f, Methyl 6-(3-nitrocinnamido)-6-deoxy-α-D-mannopyranoside]: in test [1], inhibition was half-maximal at 53.4 µM (IC50) and the “rIC50 (MeMan)” value is listed as 0.25. As for `COc1ccc(/C=C/C(=O)NC[C@H]2O[C@H](OC)[C@@H](O)[C@@H](O)[C@@H]2O)cc1` [11h, Methyl 6-(4-methoxycinnamido)-6-deoxy-α-D-mannopyranoside], in test [1], the IC50 worked out at 66 µM and the “rIC50 (MeMan)” value is recorded as 0.3. In the same order, the values of `CO[C@H]1O[C@H](CNS(=O)(=O)c2ccc(C)cc2)[C@@H](O)[C@H](O)[C@@H]1O` [10b, Methyl 6-(p-tosylamido)-6-deoxy-α-D-mannopyranoside] are 68.2 µM and 0.31. On to `CO[C@H]1O[C@H](CNS(=O)(=O)c2ccc([N+](=O)[O-])cc2)[C@@H](O)[C@H](O)[C@@H]1O` [10d, Methyl 6-(4-nitrophenylsulfonylamido)-6-deoxy-α-D-mannopyranoside], for which, in test [1], the IC50 turned out to be 47.4 µM and the “rIC50 (MeMan)” value is 0.21.
